Data published in article PMC8615111, “Phenolic Thiazoles with Antioxidant and Antiradical Activity. Synthesis, In Vitro Evaluation, Toxicity, Electrochemical Behavior, Quantum Studies and Antimicrobial Screening” (Antioxidants, 2021).
Like-named read-outs stand apart in the source and are kept apart here.

Columns and labels:
[1] = ABTS˙^+ radical scavenging assay; assay type: biochemical; settings: for IC50: ABTS˙^+ scavenging
Procedure: The assay was based on the decolorization of green (2,2′-azinobis-(3-ethylbenzothiazoline-6-sulfonic acid) ABTS˙^+ to ABTS, on the principle reported by Re et al. and was carried out according to our previously published research.
Later, 1950 µL of ABTS˙^+ reagent was added to all cuvettes and they were shaken for well over 10 min in the dark at room temperature. The absorbance of the resulted solutions found in cuvettes was determined spectrophotometrically at λ = 734 nm. The ABTS scavenging activity of the compounds was calculated using the following Equation (1):(1) ABTS scavenging (%)=control absorbance−sample absorbance/control absorbance×100

[2] = NO˙ radical scavenging assay (Griess reaction); assay type: biochemical; settings: 100 µL of test solution 1 mg/mL in DMSO, 150 min, pH 7.4
Procedure: Scavenging of the NO˙ radical was performed according to some adapted protocols reported in the literature, based on the nitroprusside decomposition at physiological pH and colorimetric quantification of the resulted products using the Griess reaction.
Over 200 µL of 10 mM sodium nitroprusside, 100 µL of test solutions (1 mg/mL in DMSO), and 400 µL phosphate-buffered saline (PBS, pH = 7.4) were added. The mixture was then incubated at room temperature for 150 min on a rotating shaker (GFL Gesellschaft für Labortechnik, Burgwedel, Germany). After that, 1 mL of sulfanilic acid 0.33% in 20% acetic acid was added and after 5 min, 1 mL of naphthylethylenediamine […] 0.1% was added to all test tubes. After 30 min, the absorbance of the sample, given by the chromophore (azo dye) formed during the diazotization of nitrite ions resulting from decomposition of sodium nitroprusside with sulfanilic acid and coupled with naphthylethylenediamine, was measured at 546 nm. The NO˙ radical scavenging activity of the tested compounds was calculated using Equation (3):(3) NO˙ scavenging (%)=control absorbance−sample absorbance/control absorbance×100

C. albicans ATCC 102310 = test: Antifungal activity, modified microdilution; assay type: cell-based; settings: Candida albicans, ATCC102310
Procedure: (§1) For evaluating the antimicrobial activity of the compounds, […] aerobic microbial strains were used: S. aureus ATCC 25923, S. pyogenes ATCC 19615, P. aeruginosa ATCC 27853, S. enterica ISM 83/37, S. typhimurium ATCC 14028, E. coli ATCC 8739, E. coli ATCC 25922, and C. albicans ATCC 102310 obtained from Food Biotechnology Laboratory, Life Sciences Institute, University of Agricultural Sciences, and Veterinary Medicine Cluj Napoca, where the experiment was performed. The antimicrobial activity of the compounds was determined using a modified microdilution technique, and the followed protocol was previously reported.
(§2) The antimicrobial activity of the final compounds, against seven aerobic microbial strains (S. aureus ATCC 25923, S. pyogenes ATCC 19615, P. aeruginosa ATCC 27853, S. enterica ISM 83/37, S. typhimurium ATCC 14028, E. coli ATCC 8739, E. coli ATCC 25922), and a fungal strain (C. albicans ATCC 102310), was determined using a modified microdilution technique.
(§3) The results of the antimicrobial activity evaluation of the compounds, in comparison to norfloxacin and chloramphenicol used as standard antibiotics and fluconazole used as reference antifungal, are depicted in Table 10.

E. coli ATCC 8739 = test: Antimicrobial activity, modified microdilution; assay type: cell-based; settings: Escherichia coli, ATCC8739
Procedure: as §1, §2, §3

S. enterica ISM 83/37 = test: Antimicrobial activity, modified microdilution; assay type: cell-based; settings: Salmonella enterica, ISM83/37
Procedure: as §1, §2, §3

P. aeruginosa ATCC 27853 = test: Antimicrobial activity, modified microdilution; assay type: cell-based; settings: Pseudomonas aeruginosa, ATCC27853
Procedure: as §1, §2, §3

S. aureus ATCC 25923 = test: Antimicrobial activity, modified microdilution; assay type: cell-based; settings: Staphylococcus aureus, ATCC25923
Procedure: as §1, §2, §3

S. pyogenes ATCC 19615 = test: Antimicrobial activity, modified microdilution; assay type: cell-based; settings: Streptococcus pyogenes, ATCC19615
Procedure: as §1, §2, §3

E. coli ATCC 25922 = test: Antimicrobial activity, modified microdilution; assay type: cell-based; settings: Escherichia coli, ATCC25922
Procedure: as §1, §2, §3

[3] = test system: S. typhimurium ATCC 14028; test: Antimicrobial activity, modified microdilution; assay type: cell-based; settings: Salmonella enterica
Procedure: as §1, §2, §3

[4] = DPPH˙ radical scavenging by cyclic voltammetry
Procedure: The antioxidant properties were evaluated in terms of their activity against some free radicals, and other compounds reported in the literature, relevant for this purpose, such as: • ferric ions (Fe^3+)—used to test the reduction of the antioxidant character of the compounds; • DPPH˙ free radical– used to test the scavenging effect of the compounds on this radical; • hydrogen peroxide (H2O2)—used to test the scavenging effect of the synthesized molecules on this compound; • 2,2,6,6-tetramethylpiperidinyl-1-oxy (TEMPO)—used to test the scavenging effect of the synthesized molecules on this compound.
The radical scavenging properties of the novel compounds and the other antioxidants were determined using a stock DPPH˙ radical solution prepared in absolute ethanol. The antioxidant samples were mixed with DPPH˙ solution and HClO4 electrolyte and incubated in the dark for 30 min. The remaining redox activity of DPPH was measured by cycling the potential between −0.7 V and 1.2 V, with a scan rate of 0.1 V/s.
The nitrogen-centered 2-2-diphenyl-1-picrylhydrazyl radical (DPPH˙) based assay is one of the most commonly employed method to evaluate the ability of a compound to scavenge or neutralize free radicals based on the reduction of the radical.
Taking into account the redox activity of DPPH˙, its diminution by an antioxidant can also be followed by CV, which is expected to show changes in the voltammetric peaks. Figure A5 reports the electrochemical study of initial electrooxidation of DPPH˙ and the novel compounds compared to remaining peaks after their incubation for 30 min. The decrease of all the peaks after mixture incubation indicates the partial consumption of DPPH˙.

[5] = C. albicans ATCC 102310, read-out: MIC
[6] = E. coli ATCC 8739, read-out: MIC
[7] = P. aeruginosa ATCC 27853, read-out: MIC
[8] = S. aureus ATCC 25923, read-out: MIC
[9] = S. pyogenes ATCC 19615, read-out: MIC
[10] = E. coli ATCC 25922, read-out: MIC
[11] = S. typhimurium ATCC 14028, read-out: MIC
[12] = compound alone 0.5 mM in 0.1 M HClO4, 1st Eox column
[13] = compound alone 0.5 mM in 0.1 M HClO4, 1st Iox column
[14] = compound alone, 2nd Ered column
[15] = compound + DPPH, 30 min, 2nd Eox

Row | SMILES | % of ABTS˙^+ Scavenged ([1]; 0.5 µg/mL) | % of ABTS˙^+ Scavenged ([1]; 0.75 µg/mL) | % of ABTS˙^+ Scavenged ([1]; 1 µg/mL) | % of ABTS˙^+ Scavenged ([1]; 1.5 µg/mL) | % of ABTS˙^+ Scavenged ([1]; 2.5 µg/mL) | IC50 [1] | % of NO˙ Scavenged [2] | MIC (C. albicans ATCC 102310; [5]) | MIC (E. coli ATCC 8739; [6]) | MIC (S. enterica ISM 83/37) | MIC (P. aeruginosa ATCC 27853; [7]) | MIC (S. aureus ATCC 25923; [8]) | MIC (S. pyogenes ATCC 19615; [9]) | MIC (E. coli ATCC 25922; [10]) | MIC [3, 11] | Eox (V) [4, 12] | Iox (μA) [4, 13] | Ered (V) [4, 14] | Ired (μA) ([4]; compound alone, 2nd Ired) | Eox (V) ([4]; compound alone, 3rd Eox column) | other results
1 | Cl.Oc1ccc(/C=N/Nc2nc(-c3ccc(O)c(O)c3)cs2)c(O)c1 [Compound 8b, (E)-2-(2,4-dihydroxybenzylidene)-1-(4-(3,4-dihydroxyphenyl)thiazol-2-yl)hydrazin-1-ium chloride] | 40.09% | 44.44% | 50.79% | 66.66% | 96.82% | 0.91 µg/mL | 46.30% | > 100 µg/mL | > 100 µg/mL | > 100 µg/mL | 31.2 µg/mL | > 100 µg/mL | > 100 µg/mL | > 100 µg/mL | > 100 µg/mL | 0.259 V | 10.92 μA | 0.127 V | −3.52 μA | 0.47 V | Ered (V) ([4]; compound + DPPH, 30 min, 1st Ered): 0.259 V; Ired (μA) ([4]; compound + DPPH, 30 min, 1st Ired): −14.96 μA; Eox (V) ([4]; compound + DPPH, 30 min, 3rd Eox column): 0.457 V; Iox (μA) ([4]; compound + DPPH, 30 min, 3rd Iox column): 18.63 μA; Eox (V) ([4]; compound + DPPH, after 30 min of reaction, 1st Eox column): 0.247 V; Iox (μA) ([4]; compound + DPPH, after 30 min of reaction, 1st Iox column): 17.56 μA; Iox (μA) ([4]; compound alone, 3rd Iox column): 29.61 μA
2 | Cc1csc(N/N=C/c2ccc(O)cc2O)n1.Cl [Compound 5b, (E)-2-(2,4-dihydroxybenzylidene)-1-(4-methylthiazol-2-yl)hydrazin-1-ium chloride] | 35.55% | 41.10% | 48.40% | 66.50% | 98.09% | 1.00 µg/mL | 35.63% | > 100 µg/mL | > 100 µg/mL | > 100 µg/mL | 31.2 µg/mL | > 100 µg/mL | > 100 µg/mL | > 100 µg/mL | > 100 µg/mL |  |  | 0.11 V | −10.26 μA |  | Iox (μA) ([4]; compound + DPPH, 30 min): 33.3 μA; Eox (V) [4, 15]: 0.349 V; Ered (V) ([4]; compound + DPPH, 30 min, 2nd Ered column): 0.145 V; Ired (μA) ([4]; compound + DPPH, 30 min, 2nd Ired): −7.56 μA; Iox (μA) ([4]; compound alone): 31.76 μA; Eox (V) ([4]; compound alone, 2nd Eox): 0.357 V
3 | Br.C/C(=N\Nc1nc(-c2ccc(O)c(C(N)=O)c2)cs1)c1ccc(O)cc1O [Compound 7a, (E)-1-(4-(3-carbamoyl-4-hydroxyphenyl)thiazol-2-yl)-2-(1-(2,4-dihydroxyphenyl)ethylidene)hydrazin-1-ium bromide] | 11.62% | 17.29% | 22.69% | 30.78% | 49.37% | 2.52 µg/mL | 21.44% |  |  | > 100 µg/mL |  |  |  |  |  | 0.205 V | 3.21 μA | 0.217 V | −5.26 μA | 0.493 V | MIC (C. albicans ATCC 102310): > 100 µg/mL; MIC (E. coli ATCC 8739): > 100 µg/mL; MIC (P. aeruginosa ATCC 27853): 3.9 µg/mL; MIC (S. aureus ATCC 25923): 62.4 µg/mL; MIC (S. pyogenes ATCC 19615): 31.2 µg/mL; MIC (E. coli ATCC 25922): > 100 µg/mL; MIC [3]: > 100 µg/mL; Iox (μA) ([4]; compound + DPPH, 30 min): 9.24 μA; Eox (V) [4, 15]: 0.405 V; Iox (μA) ([4]; compound alone, 3rd Iox column): 3.95 μA
